Test results from publication PMC10971446 (Marine Drugs, 2024).
Where a SMILES comes first, the peptide text is derived from it. Bridges are numbered along the chain shown (N, C = ends). [ ]: non-standard residue; d: D form. pGlu = O=C1CC[C@@H](C(=O)O)N1

What was measured:
mouse α6/α3β4 nAChR = mouse α6/α3β4 nAChR (Mus musculus, UniProt Q8R493+Q8R4G9+Q9R0W9); format: cell-based
[1] = test system: ACh+PNU-responsive mouse DRG neurons (α7 nAChR); format: cell-based
mouse DRG neurons = settings: cited from earlier work
α7 nAChR = settings: cited from earlier work

mouse α6/α3β4 nAChR, sequence (Q8R493 whole entry, looked up): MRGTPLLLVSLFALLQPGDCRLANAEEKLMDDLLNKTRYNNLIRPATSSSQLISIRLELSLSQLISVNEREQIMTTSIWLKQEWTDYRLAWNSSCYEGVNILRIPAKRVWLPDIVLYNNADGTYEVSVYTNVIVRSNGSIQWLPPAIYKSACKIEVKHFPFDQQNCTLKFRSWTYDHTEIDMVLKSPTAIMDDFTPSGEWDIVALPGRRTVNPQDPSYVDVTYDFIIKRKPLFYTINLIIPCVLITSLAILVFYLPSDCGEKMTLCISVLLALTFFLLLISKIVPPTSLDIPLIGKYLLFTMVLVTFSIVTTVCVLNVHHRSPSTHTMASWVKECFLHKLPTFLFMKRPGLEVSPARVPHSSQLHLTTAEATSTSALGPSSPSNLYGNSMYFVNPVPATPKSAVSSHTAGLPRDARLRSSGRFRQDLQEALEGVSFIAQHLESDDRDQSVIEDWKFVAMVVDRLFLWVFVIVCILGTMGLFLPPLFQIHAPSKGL
mouse α6/α3β4 nAChR, sequence (Q8R4G9 whole entry, looked up): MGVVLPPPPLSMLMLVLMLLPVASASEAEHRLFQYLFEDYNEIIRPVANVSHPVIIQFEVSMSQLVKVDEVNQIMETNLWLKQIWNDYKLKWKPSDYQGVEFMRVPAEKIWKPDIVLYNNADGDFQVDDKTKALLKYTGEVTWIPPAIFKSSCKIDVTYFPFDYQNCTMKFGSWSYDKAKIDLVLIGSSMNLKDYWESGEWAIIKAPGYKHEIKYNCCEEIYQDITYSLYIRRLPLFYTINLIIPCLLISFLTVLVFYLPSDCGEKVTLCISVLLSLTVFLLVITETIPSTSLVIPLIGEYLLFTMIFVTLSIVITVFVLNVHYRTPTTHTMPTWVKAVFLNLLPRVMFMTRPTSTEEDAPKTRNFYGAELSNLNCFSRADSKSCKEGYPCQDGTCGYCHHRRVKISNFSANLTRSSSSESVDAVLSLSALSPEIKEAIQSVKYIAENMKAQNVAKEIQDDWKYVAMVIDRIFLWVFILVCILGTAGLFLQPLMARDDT
mouse α6/α3β4 nAChR, sequence (Q9R0W9 whole entry, looked up): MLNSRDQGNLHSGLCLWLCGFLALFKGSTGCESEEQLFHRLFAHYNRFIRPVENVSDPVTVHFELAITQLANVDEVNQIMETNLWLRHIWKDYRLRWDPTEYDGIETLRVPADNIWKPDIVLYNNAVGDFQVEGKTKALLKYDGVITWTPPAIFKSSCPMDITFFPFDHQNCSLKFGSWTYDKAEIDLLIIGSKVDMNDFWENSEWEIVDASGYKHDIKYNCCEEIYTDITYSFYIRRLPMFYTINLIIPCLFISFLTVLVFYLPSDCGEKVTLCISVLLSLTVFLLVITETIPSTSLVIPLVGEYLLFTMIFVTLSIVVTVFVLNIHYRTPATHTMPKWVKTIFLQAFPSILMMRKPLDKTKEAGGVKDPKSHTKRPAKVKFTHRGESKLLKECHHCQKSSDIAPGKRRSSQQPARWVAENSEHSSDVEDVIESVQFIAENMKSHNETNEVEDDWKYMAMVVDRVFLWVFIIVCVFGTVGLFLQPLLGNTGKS

Compound	loss of potency on α6/α3β4 compared to αCtx-PeIA (mouse α6/α3β4 nAChR)	calcium response to ACh alone or ACh+PNU in α7-expressing DRG neurons [1]	calcium response of DRG neurons to agonist (mouse DRG neurons)	α7 modulation (α7 nAChR)
CC(C)C[C@@H]1NC(=O)[C@H](CCC(=O)O)NC(=O)[C@@H]2CCCN2C(=O)[C@H](Cc2c[nH]cn2)NC(=O)[C@H](CC(N)=O)NC(=O)[C@H](C(C)C)NC(=O)[C@H](CO)NC(=O)[C@@H]2CSSC[C@H](NC(=O)CNC(=O)[C@@H]3CCC(=O)N3)C(=O)N[C@@H](CSSC[C@@H](C(=O)N[C@@H](Cc3c[nH]c4ccccc34)C(=O)O)NC1=O)C(=O)N[C@@H](CO)C(=O)N[C@@H](Cc1c[nH]cn1)C(=O)N1CCC[C@H]1C(=O)N[C@@H](C)C(=O)N2 [αCtx-AtIA] ([pGlu]GCCSHPACSVNHPELCW-OH; disulfide 3-9, 4-17)	~ 5 fold	–	–	–
CC(=O)OCC[N+](C)(C)C [ACh, acetylcholine]	–	did not cause calcium influx in these cells	a subset of mouse DRG neurons responds to serial application of 1 mM acetylcholine (ACh) with elevation of intracellular calcium	–
PNU-120596	–	co-application of ACh and PNU uncovered a calcium response	–	α7 positive allosteric modulator
